Source: patent US6706740B2, “Fungicidal heterocyclic aromatic amides and their compositions, methods of use and preparation” (Dow AgroSciences LLC, priority 1999, dated 2004)
Read-outs that look alike come from different tables or passages of the source.

Experiments:
[1] = test system: Puccinia recondita—PUCCRT; assay: Brown Rust of Wheat, in vivo whole plant, 24 Hour Protectant; conditions: for pest or weed control at 100 ppm: Puccinia, read-out: PUCCRT in vivo 1 Day Protectant
[2] = test system: Stagonospora nodorum (Leptosphaeria nodorum—LEPTNO); assay: In vitro fungal growth inhibition, Stagonospora nodorum (LEPTNO); type: cell-based; conditions: Leptosphaeria, read-out: LEPTNO in vitro Growth Inhibition
[3] = test system: Septoria tritici—SEPTTR; assay: Leaf Blotch of Wheat, in vivo whole plant, 24 Hour Protectant; conditions: for pest or weed control at 100 ppm: Zymoseptoria tritici, 24 h, control of fungal infection vs untreated plants, read-out: SEPTTR in vivo 1 Day Protectant
[4] = test system: Phytophthora infestans—PHYTIN; assay: whole plant or invertebrate; type: in vivo; conditions: Phytophthora, in Solanum lycopersicum, 24 h, read-out: PHYTIN in vivo 1 Day Protectant
[5] = test system: Mycosphaerella graminicola (Septoria tritici—SEPTTR); assay: In vitro fungal growth inhibition, Mycosphaerella graminicola (SEPTTR); type: cell-based; conditions: Zymoseptoria tritici, read-out: SEPTTR in vitro Growth Inhibition
[6] = test system: Magnaporthe grisea (Pyricularia oryzae—PYRIOR); assay: microbe, parasite or virus in culture; type: cell-based; conditions: Pyricularia oryzae, read-out: PYRIOR in vitro Growth Inhibition
[7] = test system: Ustilago maydis (USTIMA); assay: microbe, parasite or virus in culture; type: cell-based; conditions: Mycosarcoma maydis, read-out: USTIMA in vitro Growth Inhibition
[8] = test system: Erysiphe graminis—ERYSGT; assay: Powdery Mildew of Wheat, in vivo whole plant, 24 Hour Protectant; conditions: for pest or weed control at 100 ppm: Erysiphe, read-out: ERYSGT in vivo 1 Day Protectant
[9] = test system: Leptosphaeria nodorum—LEPTNO; assay: Glume Blotch of Wheat, in vivo whole plant, 24 Hour Protectant; conditions: for pest or weed control at 100 ppm: Leptosphaeria, read-out: LEPTNO in vivo 1 Day Protectant
[10] = test system: Rhizoctonia solani (RHIZSO); assay: microbe, parasite or virus in culture; type: cell-based; conditions: Rhizoctonia solani, read-out: RHIZSO in vitro Growth Inhibition
[11] = test system: Phytophthora infestans (PHYTIN); assay: microbe, parasite or virus in culture; type: cell-based; conditions: Phytophthora infestans, read-out: PHYTIN in vitro Growth Inhibition
[12] = 100 ppm spray, 24 hour protectant, wheat, control of fungal infection vs untreated plants
[13] = 100 ppm spray, 24 hour protectant, wheat
[14] = 100 ppm spray, wheat, 24 hour protectant, % control of fungal infection vs untreated plants
[15] = wheat plants sprayed at 100 ppm, inoculated after 24 hours, control of fungal infection vs untreated plants
[16] = wheat plants sprayed at 100 ppm, inoculated after 24 hours
[17] = 100 ppm spray, wheat, 24 hour protectant, control of fungal infection vs untreated plants

SMILES | melting point [°C] | inhibition at 25 ppm ([2]; 25 ppm in growth medium) [%] | pest or weed control at 100 ppm [4] [%] | inhibition at 25 ppm ([5]; 25 ppm in growth medium) [%] | inhibition at 25 ppm [6] [%] | inhibition at 25 ppm [7] [%] | inhibition at 25 ppm [10] [%] | inhibition at 25 ppm [11] [%] | pest or weed control at 100 ppm [8, 14] [%] | also measured
O=C(NC1CCC(O)CC1)c1ncccc1O (stereo not drawn) [Compound 208] | 112 to 115 | < 80 | 25 to 74 | < 80 | < 80 | < 80 | < 80 | < 80 |  | pest or weed control at 100 ppm [1, 12]: 25 to 74%; pest or weed control at 100 ppm [3, 13]: < 25%; pest or weed control at 100 ppm [8, 12]: < 25%; pest or weed control at 100 ppm [9, 12]: < 25%
COc1cc(NC(=O)c2ncccc2O)cc(OC)c1 [Compound 216] | 127 to 129 | < 80 | < 25 | < 80 | > 80 | < 80 | < 80 | < 80 |  | pest or weed control at 100 ppm [1, 12]: < 25%; pest or weed control at 100 ppm [3, 13]: < 25%; pest or weed control at 100 ppm [8, 12]: < 25%; pest or weed control at 100 ppm [9, 12]: < 25%
COc1ccnc(C(=O)Nc2ccc(Oc3ccc(C(F)(F)F)cc3)cc2)c1OS(C)(=O)=O [Compound 723] | 177 to 180 | < 80 | 25 to 74 | < 80 | < 80 | < 80 | < 80 | < 80 | < 25 | pest or weed control at 100 ppm [1, 14]: 25 to 74%; pest or weed control at 100 ppm [9, 14]: 25 to 74%
COc1ccnc(C(=O)Nc2ccc(Oc3ccc(C(F)(F)F)cc3)cc2)c1OC(C)=O [Compound 709] | 165 to 166 | > 80 | < 25 | > 80 | > 80 | > 80 | > 80 | < 80 |  | pest or weed control at 100 ppm [1, 14]: < 25%; ERYSGT in vivo 1 Day Protectant [8, 14]: + +; LEPTNO in vivo 1 Day Protectant [9, 14]: + +
COc1ccnc(C(=O)NC2CCN(Cc3cccc(C(F)(F)F)c3)CC2)c1O.O=C(O)/C=C\C(=O)O.O=C(O)/C=C\C(=O)O [Compound 307] | 168 to 170 |  | < 25 |  | < 80 | < 80 | < 80 | < 80 |  | pest or weed control at 100 ppm ([1]; 24 h): < 25%; inhibition at 25 ppm [2]: < 80%; inhibition at 25 ppm [5]: < 80%; pest or weed control at 100 ppm ([8]; 24 h): 25 to 74%; pest or weed control at 100 ppm ([9]; 24 h): < 25%
COc1ccnc(C(=O)N[C@H]2COC(=O)[C@H](Cc3ccccc3)[C@@H](OC(=O)C(C)C)[C@H](C)OC2=O)c1OC(=O)C(C)C [Compound 602] | 160 to 161 | > 80 | < 25 | < 80 | < 80 | < 80 | < 80 | < 80 | < 25 | 
COc1ccnc(C(=O)N[C@H]2COC(=O)[C@H](Cc3ccccc3)[C@@H](OC(=O)C(C)C)[C@H](C)OC2=O)c1OS(C)(=O)=O [Compound 721] | 189 to 194 | > 80 | < 25 | < 80 | < 80 | < 80 | < 80 | < 80 | < 25 | PUCCRT in vivo 1 Day Protectant [1, 14]: + +; LEPTNO in vivo 1 Day Protectant [9, 14]: + +
O=C(NC1CCCCCCC1)c1ncccc1O [Compound 203] | 63 to 64 | > 80 |  | > 80 | > 80 | < 80 | > 80 | < 80 |  | 
COc1ccnc(C(=O)N[C@H]2COC(=O)[C@H](Cc3ccccc3)[C@@H](OC(=O)C(C)C)[C@H](C)OC2=O)c1OS(=O)(=O)c1ccc(C)cc1 [Compound 722] | 153 to 155 | < 80 | < 25 | < 80 | < 80 | < 80 | < 80 | < 80 | < 25 | pest or weed control at 100 ppm [1, 14]: 25 to 74%; LEPTNO in vivo 1 Day Protectant [9, 14]: + +
COc1ccnc(C(=O)NC2COC3(CC(C)(C)CC(C)(C)C3)OC2)c1O [Compound 315] |  | < 80 | < 25 | < 80 | < 80 | < 80 | < 80 | < 80 |  | pest or weed control at 100 ppm [1, 12]: < 25%; pest or weed control at 100 ppm [3, 13]: < 25%; pest or weed control at 100 ppm [8, 12]: < 25%; pest or weed control at 100 ppm [9, 12]: 25 to 74%
CC(C)C(=O)O[C@H]1[C@H](C)OC(=O)[C@@H](NC(=O)c2nscc2O)COC(=O)[C@@H]1Cc1ccccc1 [Compound 550] |  |  | < 25 |  | > 80 | < 80 | < 80 | > 80 |  | pest or weed control at 100 ppm [1, 15]: 25 to 74%; inhibition at 25 ppm ([2]; 25 ppm in the growth medium): > 80%; pest or weed control at 100 ppm [3, 16]: 25 to 74%; inhibition at 25 ppm ([5]; 25 ppm in the growth medium): > 80%; pest or weed control at 100 ppm [8, 15]: 25 to 74%; LEPTNO in vivo 1 Day Protectant [9, 15]: + +
O=C(Nc1ccccc1Oc1cccc(C(F)(F)F)c1)c1nc(Br)ccc1O [Compound 492] |  |  | < 25 |  | < 80 | < 80 | < 80 | < 80 |  | pest or weed control at 100 ppm [1, 15]: < 25%; inhibition at 25 ppm ([2]; 25 ppm in the growth medium): < 80%; pest or weed control at 100 ppm [3, 16]: 25 to 74%; inhibition at 25 ppm ([5]; 25 ppm in the growth medium): < 80%; pest or weed control at 100 ppm [8, 15]: < 25%; pest or weed control at 100 ppm [9, 15]: < 25%
COc1cccc(Oc2ccc(NC(=O)c3nccc(OC)c3O)cc2)c1 [Compound 434] |  | > 80 | < 25 | > 80 | < 80 | < 80 | < 80 | < 80 |  | pest or weed control at 100 ppm [1, 17]: < 25%; pest or weed control at 100 ppm ([3]; 100 ppm spray, wheat, 24 hour protectant): < 25%; pest or weed control at 100 ppm [8, 17]: 25 to 74%; pest or weed control at 100 ppm [9, 17]: 25 to 74%
COc1ccnc(C(=O)N[C@H]2COC(=O)[C@H](Cc3ccccc3)[C@@H](OC(=O)CC(C)C)[C@H](C)OC2=O)c1OC(C)=O [Compound 702] |  | > 80 | < 25 | < 80 | < 80 | < 80 | < 80 | < 80 | < 25 | PUCCRT in vivo 1 Day Protectant [1, 14]: + +; SEPTTR in vivo 1 Day Protectant [3, 14]: + +; LEPTNO in vivo 1 Day Protectant [9, 14]: + +
